# Like-named read-outs stand apart in the source and are kept apart here.
# How the values were obtained:
# Assay in all cases: MIC and MBC testing, broth microdilution
# E. faecium ATCC 35667 = assay type: cell-based, Enterococcus faecium; conditions: E. faecium ATCC 35667; for MIC: 18 h
# Procedure, shortened: (§1)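 Two-fold serial dilutions of compounds (DMSO stocks) in MH broth, inoculated with log-phase bacteria at 1 × 10^6 CFU/mL and incubated 18 h at 37 °C. MIC is the lowest concentration with no visible growth; triplicates. Levofloxacin positive, 0.1% DMSO negative control.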
# [1] = tested on: K. pneumoniae ATCC 700603; assay type: cell-based, Klebsiella pneumoniae
# Procedure, shortened: as §1
# E. coli ATCC 25922 = assay type: cell-based, Escherichia coli
# Procedure, shortened: as §1
# A. baumannii ATCC 19606 = assay type: cell-based, Acinetobacter baumannii
# Procedure, shortened: as §1
# MRSA-1 = assay type: cell-based, Staphylococcus aureus; conditions: MRSA-1; for MIC: 18 h
# Procedure, shortened: (§2)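 Broth microdilution in MH broth: 2-fold compound dilutions from DMSO stocks, log-phase clinical S. aureus isolates or MRSA-1 at 1 × 10^6 CFU/mL, 18 h at 37 °C, each concentration in triplicate. MIC recorded; MBC also determined.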
# [2] = tested on: clinical S. aureus isolate LMY46; assay type: cell-based, Staphylococcus aureus; conditions: LMY46; for MIC: 18 h
# Procedure, shortened: as §2
# [3] = tested on: clinical S. aureus isolate LMY47; assay type: cell-based, Staphylococcus aureus; conditions: LMY47; for MIC: 18 h
# Procedure, shortened: as §2
# [4] = tested on: clinical S. aureus isolate LMY48; assay type: cell-based, Staphylococcus aureus; conditions: LMY48; for MIC: 18 h
# Procedure, shortened: as §2
# [5] = tested on: clinical S. aureus isolate LMY45; assay type: cell-based, Staphylococcus aureus; conditions: LMY45; for MIC: 18 h
# Procedure, shortened: as §2
# MRSA-2 = assay type: cell-based, Staphylococcus aureus; conditions: MRSA-2; for MIC: 18 h
# Procedure, shortened: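 Strains grown to logarithmic phase were diluted to 1 × 10^6 CFU/mL, combined with compound two-fold dilution series in MH broth, and incubated at 37 °C for 18 h. MIC and MBC were then recorded, with triplicate wells per concentration.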
# S. aureus ATCC 29213 = assay type: cell-based, Staphylococcus aureus; conditions: S. aureus ATCC 29213; for MIC: 18 h
# Procedure, shortened: as §1
# P. aeruginosa ATCC 27853 = assay type: cell-based, Pseudomonas aeruginosa
# Procedure, shortened: as §1
# [6] = Staphylococcus aureus, read-out: MIC
# [7] = Staphylococcus aureus, read-out: MBC
compound,measurement,setting,value
"CC(C)=CCC/C(C)=C/COc1ccc2c(c1)CCC/C2=N\NC(=N)N [Compound 2J, 2-((E)-6-(((E)-3,7-dimethylocta-2,6-dien-1-yl)oxy)-3,4-dihydronaphthalen-1(2H)-ylidene)hydrazine-1-carboximidamide]",MIC,"E. faecium ATCC 35667; Enterococcus faecium, ATCC35667, read-out: MIC",2 µg/mL
same,MBC,"E. faecium ATCC 35667; Enterococcus faecium, ATCC35667, read-out: MBC",8 µg/mL
same,MIC,"[1]; Klebsiella pneumoniae, ATCC700603, 18 h, read-out: MIC",> 32 µg/mL
same,MIC,"E. coli ATCC 25922; Escherichia coli, ATCC25922, 18 h, read-out: MIC",8 µg/mL
same,MBC,"E. coli ATCC 25922; Escherichia coli, ATCC25922, read-out: MBC",16 µg/mL
same,MIC,"A. baumannii ATCC 19606; Acinetobacter baumannii, ATCC19606, 18 h, read-out: MIC",8 µg/mL
same,MBC,"A. baumannii ATCC 19606; Acinetobacter baumannii, ATCC19606, read-out: MBC",16 µg/mL
same,MIC,MRSA-1; [6],2 µg/mL
same,MBC,MRSA-1; [7],16 µg/mL
same,MIC,[2]; [6],2 µg/mL
same,MBC,[2]; [7],> 32 µg/mL
same,MIC,[3]; [6],2 µg/mL
same,MBC,[3]; [7],16 µg/mL
same,MIC,[4]; [6],4 µg/mL
same,MBC,[4]; [7],8 µg/mL
same,MIC,[5]; [6],4 µg/mL
same,MBC,[5]; [7],16 µg/mL
same,MIC,MRSA-2; [6],2 µg/mL
same,MBC,MRSA-2; [7],16 µg/mL
same,MIC,"S. aureus ATCC 29213; Staphylococcus aureus, ATCC29213, read-out: MIC",4 µg/mL
same,MBC,"S. aureus ATCC 29213; Staphylococcus aureus, ATCC29213, read-out: MBC",8 µg/mL
same,MIC,"P. aeruginosa ATCC 27853; Pseudomonas aeruginosa, ATCC27853, 18 h, read-out: MIC",32 µg/mL
same,MBC,"P. aeruginosa ATCC 27853; Pseudomonas aeruginosa, ATCC27853, read-out: MBC",32 µg/mL
"(E)-2-(6-((2,4-dichlorobenzyl)oxy)-3,4-dihydro-1(2H)-naphthalenylidene)hydrazine-1-carboxamide [Compound 1O]",MBC,E. faecium ATCC 35667,16 µg/mL
same,MIC,E. faecium ATCC 35667,2 µg/mL
same,MIC,[1]; 18 h,>32/- µg/mL
same,MBC,E. coli ATCC 25922,16 µg/mL
same,MIC,E. coli ATCC 25922; 18 h,8 µg/mL
same,MBC,A. baumannii ATCC 19606,16 µg/mL
same,MIC,A. baumannii ATCC 19606; 18 h,16 µg/mL
same,MBC,MRSA-1,16 µg/mL
same,MIC,MRSA-1,1 µg/mL
same,MBC,[2],8 µg/mL
same,MIC,[2],4 µg/mL
same,MBC,[3],4 µg/mL
same,MIC,[3],≤ 1 µg/mL
same,MBC,[4],2 µg/mL
same,MIC,[4],≤ 1 µg/mL
same,MBC,[5],16 µg/mL
same,MIC,[5],2 µg/mL
same,MBC,MRSA-2,8 µg/mL
same,MIC,MRSA-2,2 µg/mL
same,MBC,S. aureus ATCC 29213,8 µg/mL
same,MIC,S. aureus ATCC 29213,4 µg/mL
same,MIC,P. aeruginosa ATCC 27853; 18 h,>32/- µg/mL
"(E)-2-(6-((3,4-dichlorobenzyl)oxy)-3,4-dihydro-1(2H)-naphthalenylidene)hydrazine-1-carboxamide [Compound 1P]",MBC,E. faecium ATCC 35667,8 µg/mL
same,MIC,E. faecium ATCC 35667,2 µg/mL
same,MBC,[1],32 µg/mL
same,MIC,[1]; 18 h,32 µg/mL
same,MBC,E. coli ATCC 25922,16 µg/mL
same,MIC,E. coli ATCC 25922; 18 h,8 µg/mL
same,MBC,A. baumannii ATCC 19606,16 µg/mL
same,MIC,A. baumannii ATCC 19606; 18 h,8 µg/mL
same,MBC,MRSA-1,16 µg/mL
same,MIC,MRSA-1,1 µg/mL
same,MBC,[2],8 µg/mL
same,MIC,[2],2 µg/mL
same,MBC,[3],4 µg/mL
same,MIC,[3],2 µg/mL
same,MBC,[4],≤ 1 µg/mL
same,MIC,[4],≤ 1 µg/mL
same,MBC,[5],4 µg/mL
same,MIC,[5],2 µg/mL
same,MBC,MRSA-2,4 µg/mL
same,MIC,MRSA-2,2 µg/mL
same,MBC,S. aureus ATCC 29213,8 µg/mL
same,MIC,S. aureus ATCC 29213,2 µg/mL
same,MIC,P. aeruginosa ATCC 27853; 18 h,>32/- µg/mL
"(E)-2-(6-((4-chlorobenzyl)oxy)-3,4-dihydro-1(2H)-naphthalenylidene)hydrazine-1-carboxamide [Compound 1N]",MBC,E. faecium ATCC 35667,8 µg/mL
same,MIC,E. faecium ATCC 35667,2 µg/mL
same,MBC,[1],32 µg/mL
same,MIC,[1]; 18 h,16 µg/mL
same,MBC,E. coli ATCC 25922,8 µg/mL
same,MIC,E. coli ATCC 25922; 18 h,4 µg/mL
same,MBC,A. baumannii ATCC 19606,16 µg/mL
same,MIC,A. baumannii ATCC 19606; 18 h,4 µg/mL
same,MBC,MRSA-1,4 µg/mL
same,MIC,MRSA-1,2 µg/mL
same,MBC,[2],8 µg/mL
same,MIC,[2],4 µg/mL
same,MBC,[3],2 µg/mL
same,MIC,[3],2 µg/mL
same,MBC,[4],16 µg/mL
same,MIC,[4],2 µg/mL
same,MBC,[5],4 µg/mL
same,MIC,[5],2 µg/mL
same,MBC,MRSA-2,4 µg/mL
same,MIC,MRSA-2,2 µg/mL
same,MBC,S. aureus ATCC 29213,4 µg/mL
same,MIC,S. aureus ATCC 29213,2 µg/mL
same,MBC,P. aeruginosa ATCC 27853,32 µg/mL
same,MIC,P. aeruginosa ATCC 27853; 18 h,16 µg/mL

# From PMC12250302, “Synthesis, Antimicrobial Activities, and Model of Action of Novel Tetralone Derivatives Containing Aminoguanidinium Moiety” (International Journal of Molecular Sciences, 2025)
